Laboratory results: ChEMBL document CHEMBL1128211, “3D-quantitative structure-activity relationships of human immunodeficiency virus type-1 proteinase inhibitors: comparative molecular field analysis of 2-heterosubstituted statine derivatives-implications for the design of novel inhibitors” (J Med Chem, 1995)

Biological target: Human immunodeficiency virus type 1 protease (Human immunodeficiency virus 1, UniProt Q72874)
Assay: Inhibitory activity was determined against HIV type 1 protease

With `CC(C)[C@H](NC(=O)[C@H](NCc1ccc(Cl)cc1)[C@H](O)[C@@H](N)Cc1ccccc1)C(=O)NCc1nc2ccccc2[nH]1` the Ki was 182 nM.

With `CC(C)(C)OC(=O)N[C@@H](Cc1ccccc1)[C@@H](O)[C@@H](NCc1ccc(CNC(=O)CCc2nc3ccccc3[nH]2)cc1)C(=O)NC(CO)c1ccccc1` (stereo partly drawn) the Ki was 2510 nM.

`COc1ccc(CN[C@@H](C(=O)N[C@@H]2c3ccccc3CC2O)[C@H](O)[C@H](Cc2ccccc2)NC(=O)[C@@H](NC(=O)OCc2ccccc2)C(C)(C)C)cc1` (stereo partly drawn) was tested, and the Ki was 9.55 nM.

In the case of `CC(C)[C@H](NC(=O)[C@H](NCc1ccccc1)[C@H](O)[C@H](Cc1ccccc1)NC(=O)[C@@H](NC(=O)OCC1c2ccccc2-c2ccccc21)C(C)(C)C)C(=O)NCc1ccccc1`, the Ki is reported as 15.8 nM.

In the case of `CCCCCCCCOC(=O)N[C@H](C(=O)N[C@@H](Cc1ccccc1)[C@@H](O)[C@@H](NCc1ccccc1)C(=O)N[C@H](C(=O)NCc1ccccc1)C(C)C)C(C)(C)C`, the Ki is reported as 14.1 nM.

`CC(C)(C)[C@H](NC(=O)OCc1ccccc1)C(=O)N[C@@H](Cc1ccccc1)[C@@H](O)[C@@H](NCc1ccc(CNC(=O)CCc2nc3ccccc3[nH]2)cc1)C(=O)NCc1ccccc1` gave a Ki of 53.7 nM.

For `COc1ccc(CN[C@@H](C(=O)N[C@H]2c3ccccc3CC2O)[C@H](O)[C@H](Cc2ccccc2)NC(=O)[C@@H](NC(=O)OCc2ccccc2)C(C)(C)C)cc1` (stereo partly drawn), the Ki was 1820 nM.

With `CC(C)[C@H](NC(=O)OCc1ccccc1)C(=O)N[C@@H](Cc1ccccc1)[C@@H](O)[C@@H](NCc1ccccc1)C(=O)N[C@H](C(=O)NCc1ccccc1)C(C)(C)C` the Ki was 20 nM.

`COc1ccc(CN[C@@H](C(=O)N[C@H](C(=O)NCc2nc3ccccc3[nH]2)C(C)C)[C@H](O)[C@@H](N)Cc2ccccc2)cc1` showed a Ki of 229 nM.

In the case of `CC(C)[C@H](NC(=O)OCc1ccccc1)C(=O)N[C@@H](Cc1ccccc1)[C@@H](O)[C@@H](Nc1ccc(-c2ccccc2)cc1)C(=O)N[C@H](C(=O)NCc1nc2ccccc2[nH]1)C(C)C`, the Ki is reported as 8.91 nM.

In the case of `CC(C)[C@H](NC(=O)OCc1ccccc1)C(=O)N[C@@H](Cc1ccccc1)[C@@H](O)[C@@H](NCc1ccccc1)C(=O)N[C@H](C(=O)NCc1ccc(Br)cc1)C(C)C`, the Ki is reported as 15.1 nM.

`CC(=O)NCc1ccc(CN[C@@H](C(=O)N[C@H]2c3ccccc3CC2O)[C@H](O)[C@H](Cc2ccccc2)NC(=O)OC(C)(C)C)cc1` (stereo partly drawn) gave a Ki of 70.8 nM.

`COc1ccc(CCN[C@@H](C(=O)N[C@H](C(=O)NCc2nc3ccccc3[nH]2)C(C)C)[C@H](O)[C@H](Cc2ccccc2)NC(=O)[C@@H](NC(=O)OCc2ccccc2)C(C)C)cc1` showed a Ki of 12.6 nM.

`CCOc1ccc(CN[C@@H](C(=O)N[C@H](C(=O)NCc2nc3ccccc3[nH]2)C(C)C)[C@H](O)[C@H](Cc2ccccc2)NC(=O)[C@@H](NC(=O)OCc2ccccc2)C(C)C)cc1` gave a Ki of 24 nM.

`COC(=O)CC[C@H](NC(=O)[C@H](NCc1ccc(OC)cc1)[C@H](O)[C@H](Cc1ccccc1)NC(=O)[C@@H](NC(=O)OCc1ccccc1)C(C)C)C(=O)NCc1ccc(OC)cc1O` gave a Ki of 6.03 nM.

For `CC(C)[C@H](NC(=O)[C@H](NCc1ccccc1)[C@H](O)[C@H](Cc1ccccc1)NC(=O)[C@@H](NC(=O)CCc1ccc(O)cc1)C(C)(C)C)C(=O)NCc1ccccc1`, the Ki was 12.9 nM.

Molecule `CC(C)[C@H](NC(=O)[C@H](NCc1ccccc1)[C@H](O)[C@H](Cc1ccccc1)NC(=O)[C@@H](NC(=O)[C@@H](O)Cc1ccccc1)C(C)(C)C)C(=O)NCc1ccccc1` has a Ki of 15.1 nM.

`CC(C)[C@H](NC(=O)OCc1ccccc1)C(=O)N[C@@H](Cc1ccccc1)[C@@H](O)[C@@H](NCc1cccnc1)C(=O)N[C@H](C(=O)NCc1ccccc1)C(C)C` was tested, and the Ki was 7.08 nM.

In the case of `COc1ccc(CN[C@@H](C(=O)N[C@H](C(=O)NCc2nc3cc[nH]cc-3n2)C(C)C)[C@H](O)[C@H](Cc2ccccc2)NC(=O)[C@@H](NC(=O)OCc2ccccc2)C(C)C)cc1`, the Ki is reported as 4.17 nM.

`COc1ccc(CN[C@@H](C(=O)N[C@H](C(=O)NCn2nnc3ccccc32)C(C)C)[C@H](O)[C@H](Cc2ccccc2)NC(=O)[C@@H](NC(=O)OCc2ccccc2)C(C)C)cc1` gave a Ki of 15.1 nM.

With `CC(C)[C@H](NC(=O)CCCCCNC(=O)OC(C)(C)C)C(=O)N[C@@H](Cc1ccccc1)[C@@H](O)[C@@H](NCc1ccccc1)C(=O)N[C@H](C(=O)NCc1ccccc1)C(C)C` the Ki was 20.9 nM.

`COc1ccc(CN[C@@H](C(=O)NCC(=O)NCc2nc3ccccc3[nH]2)[C@H](O)[C@H](Cc2ccccc2)NC(=O)[C@@H](NC(=O)OCc2ccccc2)C(C)C)cc1` was tested, and the Ki was 15.5 nM.

Work on `COc1ccc(CN[C@@H](C(=O)N[C@H](C(=O)NCCN(C)C)C(C)C)[C@H](O)[C@H](Cc2ccccc2)NC(=O)[C@@H](NC(=O)OCc2ccccc2)C(C)C)cc1` yielded a Ki of 25.7 nM.

Work on `Cc1cn(CCO)c(=O)n(CCOC(=O)[C@@H](NC(=O)[C@H](NCc2ccccc2)[C@H](O)[C@H](Cc2ccccc2)NC(=O)[C@@H](NC(=O)OCc2ccccc2)C(C)C)C(C)C)c1=O` yielded a Ki of 550 nM.

In the case of `CCOC(=O)[C@H](NCc1ccc(CNCc2ccccc2)cc1)[C@H](O)[C@H](Cc1ccccc1)NC(=O)[C@@H](NC(=O)OCc1ccccc1)C(C)C`, the Ki is reported as 1910 nM.

With `COc1ccc(CN[C@@H](C(=O)N[C@H](C(=O)NCc2nc3cc[nH]cc-3n2)C(C)C)[C@H](O)[C@H](Cc2ccccc2)NC(=O)OC(C)(C)C)cc1` the Ki was 15.1 nM.

`COc1ccc(CN[C@@H](C(=O)NCC(=O)Nc2cnccc2N)[C@H](O)[C@H](Cc2ccccc2)NC(=O)[C@@H](NC(=O)OCc2ccccc2)C(C)C)cc1` showed a Ki of 1510 nM.

For `CC(C)[C@H](NC(=O)OCCCCCN)C(=O)N[C@@H](Cc1ccccc1)[C@@H](O)[C@@H](NCc1ccccc1)C(=O)N[C@H](C(=O)NCc1ccccc1)C(C)C`, the Ki was 33.1 nM.

`CC(C)[C@H](NC(=O)OCc1ccccc1)C(=O)N[C@@H](Cc1ccccc1)[C@@H](O)[C@@H](NCc1ccccc1)C(=O)N[C@H](C(=O)OCc1nc2ccc([N+](=O)[O-])cc2[nH]1)C(C)C` showed a Ki of 30.2 nM.

Molecule `CC(C)[C@H](NC(=O)COc1ccccc1)C(=O)N[C@@H](Cc1ccccc1)[C@@H](O)[C@@H](NCc1ccccc1)C(=O)NCc1ccccc1` has a Ki of 138 nM.

Work on `COc1ccc(CN[C@@H](C(=O)N[C@H](C(=O)NCc2nc3ccccc3[nH]2)C(C)C)[C@H](O)[C@H](Cc2ccccc2)NC(=O)OC(C)(C)C)cc1` yielded a Ki of 7.76 nM.

`COc1ccc(CN[C@@H](C(=O)N[C@H](C(=O)N[C@H](CO)c2ccccc2)C(C)C)[C@H](O)[C@H](Cc2ccccc2)NC(=O)[C@@H](NC(=O)OCc2ccccc2)C(C)C)cc1` gave a Ki of 14.1 nM.

For `COc1ccc(CN[C@@H](C(=O)N[C@H](C(=O)NCc2ccc(N3NC=CS3)cc2)C(C)C)[C@H](O)[C@H](Cc2ccccc2)NC(=O)[C@@H](NC(=O)OCc2ccccc2)C(C)C)cc1`, the Ki was 14.1 nM.

With `CCOC(=O)[C@H](NCc1ccc(CNC(=O)c2ccccc2)cc1)[C@H](O)[C@H](Cc1ccccc1)NC(=O)[C@@H](NC(=O)OCc1ccccc1)C(C)C` the Ki was 933 nM.

`COc1ccc(CN[C@@H](C(=O)N[C@H]2c3ccccc3CC2O)[C@H](O)[C@H](Cc2ccccc2)NC(=O)[C@@H](NC(=O)OC(C)(C)C)C(C)(C)C)cc1` (stereo partly drawn) was tested, and the Ki was 209 nM.

Work on `CC(C)(C)[C@H](NC(=O)OCc1ccccc1)C(=O)N[C@@H](Cc1ccccc1)[C@@H](O)[C@@H](NCc1ccccc1)C(=O)N[C@@H]1c2ccccc2CC1O` (stereo partly drawn) yielded a Ki of 1580 nM.

Work on `CC(C)(C)OC(=O)N[C@@H](Cc1ccccc1)[C@@H](O)[C@@H](NCc1ccc(OCCO)cc1)C(=O)N[C@H]1c2ccccc2CC1O` (stereo partly drawn) yielded a Ki of 79.4 nM.

`CC(C)[C@H](N)C(=O)N[C@@H](Cc1ccccc1)[C@@H](O)[C@@H](NCc1ccccc1)C(=O)N[C@H](C(=O)NCc1ccccc1)C(C)C` was tested, and the Ki was 741 nM.
